system: SELPLG; experiment: siRNA dose response, SELPLG mRNA knockdown, bDNA Assay; assay type: cell-based, human; conditions: THP-1, 24 hr
Experimental: (§1) Dose response curves for siRNAs were generated in vitro using a variety of cell lines according to Table 4.
(§2) Briefly, cells were seeded in 96-well plates and reverse transfected with siRNA, Lipofectamine® 2000 (0.5 uL/well; ThermoFisher), and, in some cases, a reporter plasmid (50 ng/well). The reporter plasmid (psiCHECK™-2, Promega) encoded both firefly luciferase and the gene of interest fused to renilla luciferase; silencing of the gene of interest results in proportional silencing of renilla luciferase but leaves firefly luciferase unaffected as an internal control.
(§3) After 24 hr incubation at 37° C., mRNA knockdown was measured using an endpoint assay. For targets without a reporter plasmid, a branched DNA (bDNA) assay was performed according to the manufacturer's instructions (QuantiGene® Singleplex Gene Expression Assay, ThermoFisher) to measure both the target gene and GAPDH (housekeeping gene) mRNA. Data are plotted as siRNA concentration (nM) vs. remaining mRNA (ratio of target gene to GAPDH, normalized to mock siRNA-transfected cells). For targets with a reporter plasmid, a Dual-Glo® Luciferase Assay was performed according to the manufacturer's instructions (Promega) to measure firefly and renilla luciferase expression. Data are plotted as siRNA concentration (nM) vs. remaining mRNA (ratio of renilla to firefly luminescence, normalized to mock siRNA-transfected cells).
(§4) For all dose response curves, a 4-parameter logistic model was applied to determine the IC50 of each siRNA sequence (Table 5 and FIG. 2). Data shown in Table 5 and FIG. 2 represent the mean of quadruplicates, +/−standard deviation.

Substance	IC50 [nM]
XD-09263: siRNA targeting SELPLG (sense 5'-gcAcAGAccAcucaAcccAdTsdT-3'; antisense 5'-UGGGUUGAGUGGUCUGUGCdTsdT-3'; as printed in the source, key not given here)	2.96
XD-09265: siRNA targeting SELPLG (sense 5'-aaGcAGAcGGGcAaGuGGAdTsdT-3'; antisense 5'-UCcACUUGCCCGUCUGCUUdTsdT-3'; RNA with 2'-O-methyl and phosphorothioate modifications, case key not given here, as printed in the source, key not given here)	0.486
XD-09264: siRNA targeting SELPLG (sense 5'-accAAAAGAGGucuGuucAdTsdT-3'; antisense 5'-UGAAcAGACCUCUUUUGGUdTsdT-3'; as printed in the source, key not given here)	1.96

system: TBXAS1; experiment: siRNA dose response, TBXAS1 mRNA knockdown, bDNA Assay; assay type: cell-based, human; conditions: A549, 24 hr
Experimental: as §1, §2, §3, §4

Substance	IC50 [nM]
XD-10498: siRNA targeting TBXAS1 (sense 5'-gcGuGcAAGAcuuuGAcAudTsdT-3'; antisense 5'-AUGUcAAAGUCUUGcACGCdTsdT-3'; RNA with 2'-O-methyl and phosphorothioate modifications, case key not given here, as printed in the source, key not given here)	0.273
XD-10497: siRNA targeting TBXAS1 (sense 5'-ccAuGGGcGuGcAaGAcuudTsdT-3'; antisense 5'-AAGUCUUGcACGCCcAUGGdTsdT-3'; RNA with 2'-O-methyl and phosphorothioate modifications, case key not given here, as printed in the source, key not given here)	0.137
XD-10491: siRNA targeting TBXAS1 (sense 5'-cuGcAAGcGuuucuucGAAdTsdT-3'; antisense 5'-UUCGAAGAAACGCUUGcAGdTsdT-3'; RNA with 2'-O-methyl and phosphorothioate modifications, case key not given here, as printed in the source, key not given here)	0.048
XD-10495: siRNA targeting TBXAS1 (sense 5'-gaAccGAGAcGAAcuGAAudTsdT-3'; antisense 5'-AUUcAGUUCGUCUCGGUUCdTsdT-3'; RNA with 2'-O-methyl and phosphorothioate modifications, case key not given here, as printed in the source, key not given here)	0.125
XD-10490: siRNA targeting TBXAS1 (sense 5'-gccGAcAGcGuucuGuuuudTsdT-3'; antisense 5'-AAAAcAGAACGCUGUCGGCdTsdT-3'; RNA with 2'-O-methyl and phosphorothioate modifications, case key not given here, as printed in the source, key not given here)	0.573
XD-10493: siRNA targeting TBXAS1 (sense 5'-ggAuuuuGcccAAuAAGAAdTsdT-3'; antisense 5'-UUCUuAUUGGGcAAAAUCCdTsdT-3'; RNA with 2'-O-methyl and phosphorothioate modifications, case key not given here, as printed in the source, key not given here)	0.239
XD-10494: siRNA targeting TBXAS1 (sense 5'-caAuAAGAAccGAgAcGAAdTsdT-3'; antisense 5'-UUCGUCUCGGUUCUuAUUGdTsdT-3'; RNA with 2'-O-methyl and phosphorothioate modifications, case key not given here, as printed in the source, key not given here)	0.049
XD-10492: siRNA targeting TBXAS1 (sense 5'-gcccGGAuuuuGcccAAuAdTsdT-3'; antisense 5'-uAUUGGGcAAAAUCCGGGCdTsdT-3'; RNA with 2'-O-methyl and phosphorothioate modifications, case key not given here, as printed in the source, key not given here)	1.44
XD-10496: siRNA targeting TBXAS1 (sense 5'-agAcGAAcuGAAugGcuuudTsdT-3'; antisense 5'-AAAGCcAUUcAGUUCGUCUdTsdT-3'; as printed in the source, key not given here)	0.061

system: CD37; experiment: siRNA dose response, CD37 mRNA knockdown, bDNA Assay; assay type: cell-based, human; conditions: THP-1, 24 hr
Experimental: as §1, §2, §3, §4

Substance	IC50 [nM]
XD-09773: siRNA targeting CD37 (sense 5'-cgAccAAcGAcuccAcAAudTsdT-3'; antisense 5'-AUUGUGGAGUCGUUGGUCGdTsdT-3'; RNA with 2'-O-methyl and phosphorothioate modifications, case key not given here, as printed in the source, key not given here)	0.311
XD-09775: siRNA targeting CD37 (sense 5'-ccAcAAuccuAGAuAAGGudTsdT-3'; antisense 5'-ACCUuAUCuAGGAUUGUGGdTsdT-3'; RNA with 2'-O-methyl and phosphorothioate modifications, case key not given here, as printed in the source, key not given here)	1.6
XD-09777: siRNA targeting CD37 (sense 5'-guucAuGAcGcucucGAuAdTsdT-3'; antisense 5'-uAUCGAGAGCGUcAUGAACdTsdT-3'; RNA with 2'-O-methyl and phosphorothioate modifications, case key not given here, as printed in the source, key not given here)	0.414

system: EVI2B; experiment: siRNA dose response, EVI2B mRNA knockdown, bDNA Assay; assay type: cell-based, human; conditions: A172, 24 hr
Experimental: as §1, §2, §3, §4

Substance	IC50 [nM]
XD-10488: siRNA targeting EVI2B (sense 5'-agcuAuAAucAucauuGuAdTsdT-3'; antisense 5'-uAcAAUGAUGAUuAuAGCUdTsdT-3'; RNA with 2'-O-methyl and phosphorothioate modifications, case key not given here, as printed in the source, key not given here)	2.55
XD-10484: siRNA targeting EVI2B (sense 5'-ccAccAAAGucAuuuGucudTsdT-3'; antisense 5'-AGAcAAAUGACUUUGGUGGdTsdT-3'; RNA with 2'-O-methyl and phosphorothioate modifications, case key not given here, as printed in the source, key not given here)	0.014
XD-10487: siRNA targeting EVI2B (sense 5'-cauAcuAAuuGGuguAcuudTsdT-3'; antisense 5'-AAGuAcACcAAUuAGuAUGdTsdT-3'; RNA with 2'-O-methyl and phosphorothioate modifications, case key not given here, as printed in the source, key not given here)	0.156
XD-10485: siRNA targeting EVI2B (sense 5'-gucAAAAAuucAccuAGGAdTsdT-3'; antisense 5'-UCCuAGGUGAAUUUUUGACdTsdT-3'; RNA with 2'-O-methyl and phosphorothioate modifications, case key not given here, as printed in the source, key not given here)	1.38
XD-10486: siRNA targeting EVI2B (sense 5'-ggAuuuAucuuAGauAcuAdTsdT-3'; antisense 5'-uAGuAUCuAAGAuAAAUCCdTsdT-3'; RNA with 2'-O-methyl and phosphorothioate modifications, case key not given here, as printed in the source, key not given here)	0.225
XD-10489: siRNA targeting EVI2B (sense 5'-cucccAAcucuGAucAAGAdTsdT-3'; antisense 5'-UCUUGAUcAGAGUUGGGAGdTsdT-3'; RNA with 2'-O-methyl and phosphorothioate modifications, case key not given here, as printed in the source, key not given here)	0.013
XD-10482: siRNA targeting EVI2B (sense 5'-caAccAAcAccAAuAGccAdTsdT-3'; antisense 5'-UGGCuAUUGGUGUUGGUUGdTsdT-3'; RNA with 2'-O-methyl and phosphorothioate modifications, case key not given here, as printed in the source, key not given here)	0.017
XD-10483: siRNA targeting EVI2B (sense 5'-ccAucuGcccGuAcuucuAdTsdT-3'; antisense 5'-uAGAAGuACGGGcAGAUGGdTsdT-3'; RNA with 2'-O-methyl and phosphorothioate modifications, case key not given here, as printed in the source, key not given here)	3.27
XD-10481: siRNA targeting EVI2B (sense 5'-cuuuGGGucAAccaAcAcAdTsdT-3'; antisense 5'-UGUGUUGGUUGACCcAAAGdTsdT-3'; RNA with 2'-O-methyl and phosphorothioate modifications, case key not given here, as printed in the source, key not given here)	0.169

— patent US20210189342A1, “COMPOSITIONS AND METHODS FOR MODULATING MONOCYTE AND MACROPHAGE INFLAMMATORY PHENOTYPES AND IMMUNOTHERAPY USES THEREOF” (Verseau Therapeutics, Inc., priority 2018, published 2021)
